Data taken from patent US10980813B2, “Antifungal composition” (SEED RESEARCH INSTITUTE CO., LTD., priority 2017, dated 2021).
Values after ≈ are worked out from the molar mass of the structure shown.

Tests used:
Assay in all cases: Antifungal activity, MIC by disc (diffusion) method
A. fumigatus = type: cell-based; settings: Aspergillus fumigatus, YMG agar, 24 hr at 28° C., read-out: MIC (minimum inhibitory concentration) A. fumigatus
Experimental: (§1) Measurement Method of Antifungal Activity in Various Compounds
(§2) The minimum inhibitory concentration (MIC) was measured by a disc method (diffusion method). The disc method is one kind of the diffusion method, and is a method in which filter paper (disc) impregnated with an antifungal substance at a given concentration is placed on an agar medium (test plate) coated with a test bacterium and cultivated. The disc absorbs water in the medium, diffuses the antifungal substance and forms a given concentration gradient. As a result, the test bacterium forms a growth inhibition zone (circle) in the periphery of the disc, and the level of sensitivity to the antifungal substance is determined from the diameter of the inhibition circle.
(§3) Using the aforementioned method, MIC of various compounds was measured.
(§4) i: In a 100 mL flask, 20 mL of YMG or Mueller Hinton medium is produced.
(§5) ii: A loopful of the test bacterium is dissolved in the medium.
(§6) iii: The medium is cultured at 200 rpm for 24 hr in a rotary shaker set to 28° C.
(§7) i: In a 300 mL flask, 100 mL of YMG or Mueller Hinton agar medium (low melting point agar) is produced.
(§8) ii: After cooling to 37° C.-40° C., preculture medium (1 mL) is added and the mixture is agitated.
(§9) iii: The mixture is dispensed to a square petri dish (size: 100*150*17 mm) by 20 mL each.
(§10) iv: The dish is stood at room temperature until the agar is solidified.
(§11) i: The compound is diluted in ½ dilution series in 10 stages (timely changed according to compound), 50 μL of solution/pulp at each dilution stage is produced, the organic solvent is dried at room temperature and placed on a test plate.
(§12) ii: After culturing T. rubrum for 48 hr and other test bacteria for 24 hr at 28° C. in an incubator, the size of the inhibition circle was measured.
(§13) The medium composition for culture which was used for the aforementioned preculture is shown below.
(§14) [Medium Compositions for Preculture and Test Plate]
(§15) <<YMG Medium>>: For Fungus
(§16) Agar, powder 0.8% * added only when producing test plate

Saccharomyces = type: cell-based; settings: YMG agar, 24 hr at 28° C., read-out: MIC (minimum inhibitory concentration) Saccharomyces
Experimental: as §1, §2, §3, §4, §5, §6, §7, §8, §9, §10, §11, §12, §13, §14, §15, §16

T. mentagrophytes = type: cell-based; settings: Trichophyton mentagrophytes, YMG agar, 24 hr at 28° C., read-out: MIC (minimum inhibitory concentration) T. mentagrophytes
Experimental: as §1, §2, §3, §4, §5, §6, §7, §8, §9, §10, §11, §12, §13, §14, §15, §16

T. rubrum = type: cell-based; settings: Trichophyton rubrum, YMG agar, 48 hr at 28° C., read-out: MIC (minimum inhibitory concentration) T. rubrum
Experimental: as §1, §2, §3, §4, §5, §6, §7, §8, §9, §10, §11, §12, §13, §14, §15, §16

C. parapsilosis = type: cell-based, Candida parapsilosis; settings: Lodderomyces parapsilosis, YMG agar, 24 hr at 28° C., read-out: MIC (minimum inhibitory concentration) C. parapsilosis
Experimental: as §1, §2, §3, §4, §5, §6, §7, §8, §9, §10, §11, §12, §13, §14, §15, §16

Structure (SMILES): O=S1(=O)N=Cc2cc(F)ccc2O1 [I-1a]
- MIC (A. fumigatus): 4 µg/mL (≈ 19.9 µM)
- MIC (Saccharomyces): 4 µg/mL (≈ 19.9 µM)
- MIC (T. mentagrophytes): 1 µg/mL (≈ 4.97 µM)
- MIC (T. rubrum): 1 µg/mL (≈ 4.97 µM)
- MIC (C. parapsilosis): 4 µg/mL (≈ 19.9 µM)

Structure (SMILES): O=S1(=O)N=Cc2cc(Cl)ccc2O1 [I-1b]
- MIC (A. fumigatus): 4 µg/mL (≈ 18.4 µM)
- MIC (Saccharomyces): 4 µg/mL (≈ 18.4 µM)
- MIC (T. mentagrophytes): 1 µg/mL (≈ 4.59 µM)
- MIC (T. rubrum): 1 µg/mL (≈ 4.59 µM)
- MIC (C. parapsilosis): 4 µg/mL (≈ 18.4 µM)

Structure (SMILES): O=S1(=O)N=Cc2cc(Br)ccc2O1 [I-1c]
- MIC (A. fumigatus): 4 µg/mL (≈ 15.3 µM)
- MIC (Saccharomyces): 4 µg/mL (≈ 15.3 µM)
- MIC (T. mentagrophytes): 1 µg/mL (≈ 3.82 µM)
- MIC (T. rubrum): 1 µg/mL (≈ 3.82 µM)
- MIC (C. parapsilosis): 4 µg/mL (≈ 15.3 µM)

Structure (SMILES): COc1ccc2c(c1)C=NS(=O)(=O)O2 [I-1d]
- MIC (A. fumigatus): 8 µg/mL (≈ 37.5 µM)
- MIC (Saccharomyces): 8 µg/mL (≈ 37.5 µM)
- MIC (T. mentagrophytes): 2 µg/mL (≈ 9.38 µM)
- MIC (T. rubrum): 2 µg/mL (≈ 9.38 µM)
- MIC (C. parapsilosis): 8 µg/mL (≈ 37.5 µM)

Structure (SMILES): O=[N+]([O-])c1ccc2c(c1)C=NS(=O)(=O)O2 [I-1e]
- MIC (A. fumigatus): 4 µg/mL (≈ 17.5 µM)
- MIC (Saccharomyces): 4 µg/mL (≈ 17.5 µM)
- MIC (T. mentagrophytes): 1 µg/mL (≈ 4.38 µM)
- MIC (T. rubrum): 1 µg/mL (≈ 4.38 µM)
- MIC (C. parapsilosis): 4 µg/mL (≈ 17.5 µM)

Structure (SMILES): COC(=O)c1ccc2c(c1)C=NS(=O)(=O)O2 [I-1f]
- MIC (A. fumigatus): 4 µg/mL (≈ 16.6 µM)
- MIC (Saccharomyces): 4 µg/mL (≈ 16.6 µM)
- MIC (T. mentagrophytes): 1 µg/mL (≈ 4.15 µM)
- MIC (T. rubrum): 1 µg/mL (≈ 4.15 µM)
- MIC (C. parapsilosis): 4 µg/mL (≈ 16.6 µM)

Structure (SMILES): N#Cc1ccc2c(c1)C=NS(=O)(=O)O2 [I-1g]
- MIC (A. fumigatus): 4 µg/mL (≈ 19.2 µM)
- MIC (Saccharomyces): 4 µg/mL (≈ 19.2 µM)
- MIC (T. mentagrophytes): 1 µg/mL (≈ 4.8 µM)
- MIC (T. rubrum): 1 µg/mL (≈ 4.8 µM)
- MIC (C. parapsilosis): 4 µg/mL (≈ 19.2 µM)

Structure (SMILES): O=S1(=O)N=Cc2cc(Cl)cc(Cl)c2O1 [I-1h]
- MIC (A. fumigatus): 4 µg/mL (≈ 15.9 µM)
- MIC (Saccharomyces): 4 µg/mL (≈ 15.9 µM)
- MIC (T. mentagrophytes): 1 µg/mL (≈ 3.97 µM)
- MIC (T. rubrum): 1 µg/mL (≈ 3.97 µM)
- MIC (C. parapsilosis): 4 µg/mL (≈ 15.9 µM)

Structure (SMILES): O=[N+]([O-])c1cc(Cl)cc2c1OS(=O)(=O)N=C2 [I-1i]
- MIC (A. fumigatus): 4 µg/mL (≈ 15.2 µM)
- MIC (Saccharomyces): 4 µg/mL (≈ 15.2 µM)
- MIC (T. mentagrophytes): 1 µg/mL (≈ 3.81 µM)
- MIC (T. rubrum): 1 µg/mL (≈ 3.81 µM)
- MIC (C. parapsilosis): 4 µg/mL (≈ 15.2 µM)

Structure (SMILES): CC1=NS(=O)(=O)Oc2ccccc21 [I-1j]
- MIC (A. fumigatus): 8 µg/mL (≈ 40.6 µM)
- MIC (Saccharomyces): 8 µg/mL (≈ 40.6 µM)
- MIC (T. mentagrophytes): 2 µg/mL (≈ 10.1 µM)
- MIC (T. rubrum): 2 µg/mL (≈ 10.1 µM)
- MIC (C. parapsilosis): 8 µg/mL (≈ 40.6 µM)

Structure (SMILES): CC1=NS(=O)(=O)Nc2ccccc21 [I-1k]
- MIC (A. fumigatus): 8 µg/mL (≈ 40.8 µM)
- MIC (Saccharomyces): 8 µg/mL (≈ 40.8 µM)
- MIC (T. mentagrophytes): 2 µg/mL (≈ 10.2 µM)
- MIC (T. rubrum): 2 µg/mL (≈ 10.2 µM)
- MIC (C. parapsilosis): 8 µg/mL (≈ 40.8 µM)

Structure (SMILES): O=S1(=O)N=C(c2ccccc2)c2cc(Cl)ccc2N1 [I-1l]
- MIC (A. fumigatus): 8 µg/mL (≈ 27.3 µM)
- MIC (Saccharomyces): 8 µg/mL (≈ 27.3 µM)
- MIC (T. mentagrophytes): 2 µg/mL (≈ 6.83 µM)
- MIC (T. rubrum): 2 µg/mL (≈ 6.83 µM)
- MIC (C. parapsilosis): 8 µg/mL (≈ 27.3 µM)

Structure (SMILES): CC1=NS(=O)(=O)OC(C)=C1C [I-2a]
- MIC (A. fumigatus): 8 µg/mL (≈ 45.7 µM)
- MIC (Saccharomyces): 8 µg/mL (≈ 45.7 µM)
- MIC (T. mentagrophytes): 2 µg/mL (≈ 11.4 µM)
- MIC (T. rubrum): 2 µg/mL (≈ 11.4 µM)
- MIC (C. parapsilosis): 8 µg/mL (≈ 45.7 µM)

Structure (SMILES): CC1=CC(C)=NS(=O)(=O)N1 [I-2b]
- MIC (A. fumigatus): 16 µg/mL (≈ 99.9 µM)
- MIC (Saccharomyces): 16 µg/mL (≈ 99.9 µM)
- MIC (T. mentagrophytes): 2 µg/mL (≈ 12.5 µM)
- MIC (T. rubrum): 2 µg/mL (≈ 12.5 µM)
- MIC (C. parapsilosis): 16 µg/mL (≈ 99.9 µM)

Structure (SMILES): CC1=CC(c2ccccc2)=NS(=O)(=O)N1 [I-2c]
- MIC (A. fumigatus): 8 µg/mL (≈ 36 µM)
- MIC (Saccharomyces): 8 µg/mL (≈ 36 µM)
- MIC (T. mentagrophytes): 2 µg/mL (≈ 9 µM)
- MIC (T. rubrum): 2 µg/mL (≈ 9 µM)
- MIC (C. parapsilosis): 8 µg/mL (≈ 36 µM)

Structure (SMILES): CC1=C(C)C(c2ccccc2)=NS(=O)(=O)N1 [I-2d]
- MIC (A. fumigatus): 8 µg/mL (≈ 33.9 µM)
- MIC (Saccharomyces): 8 µg/mL (≈ 33.9 µM)
- MIC (T. mentagrophytes): 2 µg/mL (≈ 8.46 µM)
- MIC (T. rubrum): 2 µg/mL (≈ 8.46 µM)
- MIC (C. parapsilosis): 8 µg/mL (≈ 33.9 µM)

Structure (SMILES): CC1=NS(=O)(=O)OC1C (stereo not shown) [I-3a]
- MIC (A. fumigatus): 4 µg/mL (≈ 26.8 µM)
- MIC (Saccharomyces): 4 µg/mL (≈ 26.8 µM)
- MIC (T. mentagrophytes): 2 µg/mL (≈ 13.4 µM)
- MIC (T. rubrum): 2 µg/mL (≈ 13.4 µM)
- MIC (C. parapsilosis): 4 µg/mL (≈ 26.8 µM)

Structure (SMILES): CCC1=NS(=O)(=O)OC1CC (stereo not shown) [I-3b]
- MIC (A. fumigatus): 4 µg/mL (≈ 22.6 µM)
- MIC (Saccharomyces): 4 µg/mL (≈ 22.6 µM)
- MIC (T. mentagrophytes): 2 µg/mL (≈ 11.3 µM)
- MIC (T. rubrum): 2 µg/mL (≈ 11.3 µM)
- MIC (C. parapsilosis): 4 µg/mL (≈ 22.6 µM)

Structure (SMILES): O=S1(=O)N=C(c2ccccc2)CO1 [I-3c]
- MIC (A. fumigatus): 8 µg/mL (≈ 40.6 µM)
- MIC (Saccharomyces): 8 µg/mL (≈ 40.6 µM)
- MIC (T. mentagrophytes): 2 µg/mL (≈ 10.1 µM)
- MIC (T. rubrum): 2 µg/mL (≈ 10.1 µM)
- MIC (C. parapsilosis): 8 µg/mL (≈ 40.6 µM)

Structure (SMILES): O=S1(=O)N=C(c2ccc(Cl)cc2)CO1 [I-3d]
- MIC (A. fumigatus): 8 µg/mL (≈ 34.5 µM)
- MIC (Saccharomyces): 8 µg/mL (≈ 34.5 µM)
- MIC (T. mentagrophytes): 2 µg/mL (≈ 8.63 µM)
- MIC (T. rubrum): 2 µg/mL (≈ 8.63 µM)
- MIC (C. parapsilosis): 8 µg/mL (≈ 34.5 µM)

Structure (SMILES): CCCCCCCCN1CC(c2ccccc2)=NS1(=O)=O [I-3e]
- MIC (A. fumigatus): 8 µg/mL (≈ 25.9 µM)
- MIC (Saccharomyces): 8 µg/mL (≈ 25.9 µM)
- MIC (T. mentagrophytes): 2 µg/mL (≈ 6.48 µM)
- MIC (T. rubrum): 2 µg/mL (≈ 6.48 µM)
- MIC (C. parapsilosis): 8 µg/mL (≈ 25.9 µM)

Structure (SMILES): CC1=NS(=O)(=O)N=C1 [I-4a]
- MIC (A. fumigatus): 8 µg/mL (≈ 60.5 µM)
- MIC (Saccharomyces): 8 µg/mL (≈ 60.5 µM)
- MIC (T. mentagrophytes): 2 µg/mL (≈ 15.1 µM)
- MIC (T. rubrum): 2 µg/mL (≈ 15.1 µM)
- MIC (C. parapsilosis): 8 µg/mL (≈ 60.5 µM)

Structure (SMILES): CC1=NS(=O)(=O)N=C1C [I-4b]
- MIC (A. fumigatus): 16 µg/mL (≈ 109 µM)
- MIC (Saccharomyces): 16 µg/mL (≈ 109 µM)
- MIC (T. mentagrophytes): 4 µg/mL (≈ 27.4 µM)
- MIC (T. rubrum): 4 µg/mL (≈ 27.4 µM)
- MIC (C. parapsilosis): 16 µg/mL (≈ 109 µM)
